In US20240025862A1, “SUBSTITUTED N-PHENYLURACILS AND SALTS THEREOF, AND USE THEREOF AS HERBICIDAL ACTIVE SUBSTANCES” (Bayer Aktiengesellschaft, priority 2020, published 2024):

Legend:
Format in all cases: in vivo
[1] = tested on: Viola tricolor (VIOTR); experiment: Post-emergence herbicidal action, greenhouse pot test; conditions: Viola tricolor, 504 h, read-out: Post-emergence action against VIOTR
How it was run: (§1)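 Greenhouse-grown weeds in sandy loam were sprayed post-emergence at the one-leaf stage, 2–3 weeks after sowing. Compounds were formulated as WP or EC in water with 0.5% additive at 600 l/ha, at rates of 20 g/ha or less. Visual rating after about 3 weeks used a scale from 0% (like untreated control) to 100% (plants dead).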

[2] = tested on: Polygonum convolvulus (POLCO); experiment: as above; conditions: Fallopia convolvulus, 504 h, read-out: Post-emergence action against POLCO in %
How it was run: as §1

[3] = tested on: Avena fatua (AVEFA); experiment: as above; conditions: Avena fatua, 504 h, 20 g/ha, rated visually after about 3 weeks vs untreated controls, 100% = plants have died, read-out: Post-emergence action at 20 g/ha against AVEFA in %
How it was run: as §1

[4] = tested on: Pharbitis purpurea (PHBPU); experiment: as above; conditions: Ipomoea purpurea, 504 h, read-out: Post-emergence action against PHBPU in %
How it was run: as §1

[5] = tested on: Veronica persica (VERPE); experiment: as above; conditions: Veronica persica, 504 h, read-out: Post-emergence action against VERPE
How it was run: as §1

[6] = tested on: Abutilon theophrasti (ABUTH); experiment: as above; conditions: Abutilon theophrasti, 504 h, rated visually after about 3 weeks vs untreated controls, 100% = plants have died
How it was run: as §1

[7] = tested on: Amaranthus retroflexus (AMARE); experiment: as above; conditions: Amaranthus retroflexus, 504 h, rated visually after about 3 weeks vs untreated controls, 100% = plants have died
How it was run: as §1

[8] = tested on: Lolium rigidum (LOLRI); experiment: as above; conditions: Lolium rigidum, 504 h, dosage 20 g/ha, read-out: Post-emergence action against LOLRI in %
How it was run: as §1

[9] = tested on: Zea mays (ZEAMX); experiment: Post-emergence crop plant compatibility, greenhouse pot test; conditions: 1.25 g/ha, vs untreated controls
How it was run: (§2)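 Greenhouse-grown crop plants sprayed post-emergence at the one-leaf stage with WP or EC formulations plus 0.5% additive, at 600 l/ha water. Damage rated visually after about 3 weeks versus untreated controls (0% = like control, 100% = dead); suffixes a/b/c denote different dosages.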

[10] = tested on: Triticum aestivum (TRZAS); experiment: as above; conditions: vs untreated controls
How it was run: as §2

[11] = tested on: Glycine max (GLXMA); experiment: as above; conditions: 1.25 g/ha
How it was run: as §2

[12] = tested on: Setaria viridis (SETVI); experiment: Post-emergence herbicidal action, greenhouse pot test (also comparative test C); conditions: Setaria viridis, 504 h
How it was run: (§3)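 Greenhouse pot plants in sandy loam were sprayed post-emergence at the one-leaf stage (2–3 weeks after sowing) with WP or EC formulations plus 0.5% additive at 600 l/ha water. Activity was rated visually after about 3 weeks versus untreated controls (100% = dead, 0% = like control); rates were 20 g/ha or less, and 5 g/ha or less in the comparative test.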

[13] = tested on: Alopecurus myosuroides (ALOMY); experiment: as above; conditions: Alopecurus myosuroides, 504 h, rated visually after about 3 weeks vs untreated controls, 100% = plants have died
How it was run: as §3

[14] = tested on: Echinochloa crus-galli (ECHCG); experiment: as above
How it was run: as §3

[15] = tested on: Matricaria inodora (MATIN); experiment: as above; conditions: Tripleurospermum inodorum, 504 h, read-out: Post-emergence action against MATIN in %
How it was run: as §3

[16] = tested on: Oryza sativa (ORYSA); experiment: Post-emergence crop plant compatibility, greenhouse pot test (also comparative test C); conditions: for Post-emergence action against ORYSA (crop plant compatibility): vs untreated controls
How it was run: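 Rice and other crops sprayed post-emergence at one-leaf stage (2–3 weeks after sowing) with WP or EC formulations plus 0.5% additive at 600 l/ha water. Visual rating about 3 weeks later versus untreated controls (100% = dead, 0% = like control); suffixes a–c denote different doses.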

Question: What does the source list for `COCCOC(=O)COc1ccccc1Oc1cc(-n2c(=O)cc(C(F)(F)F)n(C)c2=O)c(F)cc1[N+](=O)[O-]` [I.6-1, 2-Methoxyethyl (2-{4-fluoro-5-[3-methyl-2,6-dioxo-4-(trifluoromethyl)-3,6-dihydropyrimidin-1(2H)-yl]-2-nitrophenoxy}phenoxy)acetate]?
Answer: pest or weed control at 1.25 g/ha ([1]; 1.25 g/ha): 100%; pest or weed control at 5 g/ha ([1]; 5 g/ha): 100%; pest or weed control at 20 g/ha ([1]; 20 g/ha): 100%; pest or weed control at 5 g/ha ([2]; dosage 5 g/ha): 100%; pest or weed control at 20 g/ha ([2]; dosage 20 g/ha): 100%; pest or weed control at 20 g/ha [3]: 100%; pest or weed control at 5 g/ha ([4]; dosage 5 g/ha): 100%; pest or weed control at 20 g/ha ([4]; dosage 20 g/ha): 100%; pest or weed control at 5 g/ha ([5]; 5 g/ha): 100%; pest or weed control at 20 g/ha ([5]; 20 g/ha): 100%; pest or weed control at 1.25 g/ha ([6]; 1.25 g/ha, read-out: Post-emergence action at 1.25 g/ha against ABUTH in %): 100%; pest or weed control at 5 g/ha ([6]; 5 g/ha, read-out: Post-emergence action at 5 g/ha against ABUTH in %): 100%; pest or weed control at 20 g/ha ([6]; 20 g/ha, read-out: Post-emergence action at 20 g/ha against ABUTH in %): 100%; pest or weed control at 1.25 g/ha ([7]; 1.25 g/ha, read-out: Post-emergence action at 1.25 g/ha against AMARE in %): 100%; pest or weed control at 5 g/ha ([7]; 5 g/ha, read-out: Post-emergence action at 5 g/ha against AMARE in %): 100%; pest or weed control at 20 g/ha ([7]; 20 g/ha, read-out: Post-emergence action at 20 g/ha against AMARE in %): 100%; pest or weed control at 20 g/ha [8]: 80%; Post-emergence action against ZEAMX (crop plant compatibility) [9]: 20%; Post-emergence action against TRZAS (crop plant compatibility) ([10]; 1.25 g/ha): 10%; Post-emergence action against TRZAS (crop plant compatibility) ([10]; 5 g/ha): 20%; Post-emergence action against GLXMA in % [11]: 20%; pest or weed control at 20 g/ha ([12]; 20 g/ha, read-out: Post-emergence action against SETVI): 100%; pest or weed control at 1.25 g/ha ([12]; dosage 1.25 g/ha, read-out: Post-emergence action against SETVI in %): 100%; pest or weed control at 5 g/ha ([12]; dosage 5 g/ha, read-out: Post-emergence action against SETVI in %): 100%; pest or weed control at 5 g/ha ([13]; 5 g/ha, read-out: Post-emergence action at 5 g/ha against ALOMY in %): 80%; pest or weed control at 20 g/ha ([13]; 20 g/ha, read-out: Post-emergence action at 20 g/ha against ALOMY in %): 100%; Post-emergence action at 1.25 g/ha against ECHCG in % ([14]; 1.25 g/ha, rated visually after about 3 weeks vs untreated controls, 100% = plants have died): 90%; pest or weed control at 5 g/ha ([14]; Echinochloa crus-galli, 504 h, dosage 5 g/ha, read-out: Post-emergence action against ECHCG in %): 90%; pest or weed control at 20 g/ha ([14]; Echinochloa crus-galli, 504 h, dosage 20 g/ha, read-out: Post-emergence action against ECHCG in %): 100%; pest or weed control at 5 g/ha ([15]; dosage 5 g/ha): 100%; pest or weed control at 20 g/ha ([15]; dosage 20 g/ha): 100%; Post-emergence action against ORYSA (crop plant compatibility) ([16]; 1.25 g/ha): 0%; Post-emergence action against ORYSA (crop plant compatibility) ([16]; 5 g/ha): 10%; Post-emergence action against ORYSA in % ([16]; 20 g/ha, crop plant compatibility): 20%
